The test system of test [1] is mitochondrial oxygen consumption. Description: Mitochondrial (cyanide sensitive) respiration, Oroboros oxygraph. In kind it is cell-based, human. On the procedure:
(§1) Lactate derived from the metabolism of ^13C6-D-glucose or ^13C5-glutamine was determined by comparing the CH3 group intensities of labeled and non-labeled lactate in NMR. Mitochondrial respiration was measured using an Oroboros 1 oxygraph system. Glycolysis was measured by monitoring the conversion of 5-^3H-Glucose to ^3H2O. Incorporation of ^14C into RNA ribose from U-^14C-labelled glucose was taken as glucose utilization in the pentose phosphate shunt. Enzymatic activities were determined in subcellular fractions as previously described^24.

The test system of another test is ATP production. Description: ATP production calculated from lactate production rates and oxygen consumption. In kind it is cell-based, human. The following applies: SW480 cells; HMGB1 80 nM, 24 h. As to the method: as §1
For analysis of ^13C-lactate efflux 1 ml of the cellular supernatant was centrifuged (8,000×g, 10 min, 4° C.) to spin down cellular debris. To 500 μl of the supernatant 10% of D2O were added respectively and transferred to 5 mm NMR sample tubes. The samples were measured with a Bruker AvanceIII 600 NMR spectrometer, equipped with a cryogenically cooled detection probe (QNP-CryoProbe™).

Another test concerns the target T1, tetrameric PK M2 (Homo sapiens, UniProt P14618).
T1 construct: Activities of glycolytic enzymes measured in cytosolic fractions after treatment with HMGB1; endogenous in cells; host or cells: SW480, HCT116, HT29 cytosolic fractions; homogenates of human colon cancer tissue slices
The test can be described thus: Pyruvate kinase enzymatic assay in cytosolic fractions / homogenates (low PEP). In kind it is cell-based. On the procedure: (§2) Enzymatic activities of respiratory chain complexes, glycolytic proteins and malic enzyme were determined in subcellular fractions as previously described (Kaminski, M. M. et al. T cell activation is driven by an ADP-dependent glucokinase linking enhanced glycolysis with mitochondrial reactive oxygen species generation. Cell reports 2, 1300-1315 (2012).Bruncko, M. et al. Naphthamidine urokinase plasminogen activator inhibitors with improved pharmacokinetic properties. Bioorganic & medicinal chemistry letters 15, 93-98, (2005)) using a computer-tuneable spectrophotometer (Spectramax Plus Microplate Reader, Molecular Devices; Sunny Vale, Calif., USA) operating in the dual wavelength mode; samples were analyzed in temperature-controlled 96-well plates in a final volume of 300 μl. Activity of ME1 was recorded in presence of increasing amounts of malic acid (0.02, 0.05, 0.1, 0.2, 0.5, 1, 2.5 mM). Vmax and Km were calculated using a Hanes-Woolf plot. In the presence of high substrate levels the Km for malic acid was similar in all three tested cell lines (SW480: 0.32 mM, HCT116: 0.30 mM, HT29: 0.31 mM). Vmax (mU/mg protein) values were 3.38 (SW480, 0.5-5.0 mM malic acid), 5.77 (HCT116, 0.5-5.0 mM malic acid) and 3.68 (HT29, 0.5-5.0 mM malic acid) and 1.68 (SW480, 0.02-0.2 mM malic acid), 3.24 (HCT116, 0.02-0.2 mM malic acid) and 1.89 (HT29, 0.02-0.2 mM malic acid). Two isoforms of ME1, mitochondrial (NAD(P)+dependent) ME3 and mitochondrial (NAD+dependent) ME2, had very low or no detectable activities (data not shown).

For the next test, the target named is T2, Dimeric PK M2 (Homo sapiens, UniProt P14618).
T2 construct: Activities of glycolytic enzymes measured in cytosolic fractions after treatment with HMGB1; endogenous in cells; host or cells: SW480, HCT116, HT29 cytosolic fractions; homogenates of human colon cancer tissue slices
Description: Pyruvate kinase enzymatic assay (high PEP). The conditions noted are these: colorectal cancer cells. The class given is cell-based. On the procedure:
as §2, with “Two isoforms of ME1, mitochondrial (NAD(P)+dependent) ME3 and mitochondrial (NAD+dependent) ME2, had very low or no detectable activities (data not shown).” left out

For test [2], the system named is glucose flux (glycolysis). Description: Glycolysis: conversion of 5-3H-Glucose to 3H2O. The class given is cell-based, human. The following applies: HMGB1 80 nM, 24 h. As to the method:
as §1

In the next test the test system is pentose phosphate shunt. The test can be described thus: Incorporation of 14C into RNA ribose from U-14C-labelled glucose. In kind it is cell-based, human. The following applies: HMGB1 80 nM, 24 h. As to the method:
as §1

In another test the test system is glucose-6-phosphate. Description: Glucose-6-phosphate assay kit. In kind it is cell-based, human. The following applies: HMGB1-treated cells. As to the method: Glucose-6-phosphate levels in cells were measured using the Glucose-6-phosphate assay kit (Sigma) according to the manufacturer's protocol.
Test [3] deals with T3, PKM2 (Homo sapiens, UniProt P14618). Description: Ultrafiltration of the PK M2-HMGB1 complex. The conditions noted are these: 2 μM human PK M2 and 2 μM human HMGB1. In kind it is binding. As to the method:
Ultrafiltration of the PK M2-HMGB1 complex: equimolar amounts of HMGB1 and PKM2 were mixed in a final volume of 300 μl and filtrated (14000 g, 4° C.) to a final volume of 15 μl in an Amicon Ultra 0.5 ml 30k device (Merck-Millipore, Darmstadt, Germany). The retentate was adjusted to the original volume after centrifugation. Then filtrate and retentate were analyzed by Western Blot. For controls HMGB1 and PKM2 were also analyzed alone. Pure HMGB1 (2 μM) suited as a negative control.

The subject of the next test is SW480 xenograft tumor. The test can be described thus: Xenograft tumor growth in nude mice. The conditions noted are these: 10 μg rhHMGB1 daily intraperitoneal for 2 weeks. In kind it is in vivo, mouse. As to the method:
For animal studies six-week-old female and male athymic CD1 nude mice (Charles River, n=40) were injected subcutaneously with 5×10^6 SW480 or HT29 cells in 100 μl PBS in the right flank using a 30-gauge needle. Treatment was started when tumors were palpable. Daily intraperitoneal injections at the contralateral side for 2 weeks were done with 10 μg rhHMGB1 in 500 μl PBS or PBS only (control group) and/or 12.5 mg/kg/injection L-DON (Ovejera, A. A., Houchens, D. P., Catane, R., Sheridan, M. A. & Muggia, F. M. Efficacy of 6-diazo-5-oxo-L-norleucine and N-[N-gamma-glutamyl-6-diazo-5-oxo-norleucinyl]-6-diazo-5-oxo-norleucine against experimental tumors in conventional and nude mice. Cancer research 39, 3220-3224 (1979).). Tumor volume was measured by a calliper using the ellipsoid formula (length×width×height×½) as described (Tomayko, M. M. & Reynolds, C. P. Determination of subcutaneous tumor size in athymic (nude) mice. Cancer Chemother Pharmacol 24, 148-154 (1989).). After 2 weeks of treatment the animals were sacrificed.

Test [4] deals with T3, PKM2. Description: Immunoprecipitation with 125I-labeled HMGB1 (PKM2 pull-down). In kind it is binding. Also on record: endogenous in cells. The following applies: 125I-labeled HMGB1. On the procedure: FIG. 6: Co-administration of HMGB1 and an activator (A left and right) or an inhibitor (B) of PMK2 has a synergistic cytotoxic effect, as determined in the crystal violet cytotoxicity assay (assays were performed in duplicate, * indicates p<0.05). (C) Immunoprecipitation with I125-labeled HMGB1 (PKM2 pull-down). HMGB1, like phosphotyrosine-peptides, binds close to the allosteric center of PKM2, leading to a competition in binding.

T1 sequence (P14618 2-531): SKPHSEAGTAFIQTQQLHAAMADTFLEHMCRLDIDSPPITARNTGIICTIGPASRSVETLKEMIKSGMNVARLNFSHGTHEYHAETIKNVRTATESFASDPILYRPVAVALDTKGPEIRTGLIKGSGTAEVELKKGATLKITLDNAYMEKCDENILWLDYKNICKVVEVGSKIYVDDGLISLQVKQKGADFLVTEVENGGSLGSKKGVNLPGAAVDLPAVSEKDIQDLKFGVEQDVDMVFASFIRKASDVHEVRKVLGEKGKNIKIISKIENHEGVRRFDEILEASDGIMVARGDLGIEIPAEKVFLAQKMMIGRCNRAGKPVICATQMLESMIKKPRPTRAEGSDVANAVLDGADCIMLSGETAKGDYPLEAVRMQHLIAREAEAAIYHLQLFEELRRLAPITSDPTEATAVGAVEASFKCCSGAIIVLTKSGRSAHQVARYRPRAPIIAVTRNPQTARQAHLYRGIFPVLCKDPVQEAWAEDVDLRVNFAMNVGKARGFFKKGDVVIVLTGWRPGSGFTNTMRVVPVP
T3 sequence (P14618 whole entry): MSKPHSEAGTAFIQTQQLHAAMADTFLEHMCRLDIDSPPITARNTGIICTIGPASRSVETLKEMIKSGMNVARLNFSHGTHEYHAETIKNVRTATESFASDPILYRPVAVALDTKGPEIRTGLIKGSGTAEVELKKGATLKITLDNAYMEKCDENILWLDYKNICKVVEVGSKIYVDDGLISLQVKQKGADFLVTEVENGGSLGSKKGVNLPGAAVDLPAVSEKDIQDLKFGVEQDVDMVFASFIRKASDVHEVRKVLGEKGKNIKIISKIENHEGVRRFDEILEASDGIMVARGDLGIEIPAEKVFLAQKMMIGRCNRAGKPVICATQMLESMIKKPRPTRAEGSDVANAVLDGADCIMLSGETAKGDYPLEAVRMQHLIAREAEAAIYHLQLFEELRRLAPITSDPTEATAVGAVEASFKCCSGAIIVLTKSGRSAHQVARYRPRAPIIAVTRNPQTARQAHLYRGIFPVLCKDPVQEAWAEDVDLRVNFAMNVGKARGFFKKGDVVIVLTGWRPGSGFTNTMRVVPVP
T2 sequence (P14618 2-531 limits assumed): as the sequence (P14618 2-531) above

Regarding “HMGB1: recombinant human HMGB1 protein (Sigma-Aldrich); High Mobility Group Box 1 polypeptide, human, SEQ ID NO: 4”, the “inhibition of mitochondrial oxygen consumption” value in test [1] (HCT116 cells, HMGB1 80 nM, 24 h) is on record as “pronounced”; in test [1] (SW480 cells, HMGB1 80 nM, 24 h) it was “pronounced”. The mitochondrial respiration result in [1] (HT29 cells, HMGB1 80 nM, 24 h) was “only slightly reduced”. For the same substance, the mitochondrial oxygen consumption entry in test [1] (colorectal cancer tissue slices, HMGB1 160 nM, 72 h) is “strongly decreased”. For the same substance, the “decline of ATP production” value in the test with ATP production is given as approximately 50%. The “tetrameric PK M2 activity” value with tetrameric PK M2 (all colorectal cancer cell lines tested, HMGB1 80 nM, 24 h) is “specifically inhibited”; with tetrameric PK M2 (ex vivo tissue slice cultures, HMGB1 160 nM, 72 h), “specifically inhibited”. In addition, in the test with Dimeric PK M2, the “Dimeric PK M2 activity” value is reported as “unchanged”. Besides, in test [2], the “glucose flux (5-3H-glucose turn-over)” value was “reduced at the enolase reaction step”. Besides, in the test with pentose phosphate shunt, the “flux of glycolytic intermediates into the pentose phosphate shunt” value is recorded as “increased flux”. Besides, the glucose-6-phosphate level result in the test on glucose-6-phosphate is “strong increase”. In addition, the “physical interaction with PK M2 in vitro” value with PKM2 [3] is “physically interacted”. Further, the xenograft tumor growth entry in the test on SW480 xenograft tumor is reported as “inhibited”. Moreover, in the test with PKM2 [4], the “binding to PKM2 in vivo (immunoprecipitating PKM2)” value is “specific binding”.

These data come from patent US11274132B2, “Combined preparations of PKM2 modulators and HMGB1” (Ruprecht-Karls-Universität Heidelberg, priority 2015, dated 2022).
